Results reported in paper PMC10436550, “Subacute toxicity evaluations of LPM3480392 in rats, a full µ-opioid receptor biased agonist” (Frontiers in Pharmacology, 2023).
Read-outs that look alike come from different tables or passages of the source.

Assay: Toxicokinetics, plasma LPM3480392 after intravenous administration
Format: in vivo, Sprague Dawley (SD) rats
Details: Sprague-Dawley, rat, plasma; for concentration at 2 min: intravenous; for AUC(0-t): iv, read-out: AUC0–12h
Description: Blood samples from animals in LPM3480392 groups were collected at predose and 2 min, 30 min, 1 h and 4 h postdose of the 1st dosing on Days 1 and 28; at 2 min and 4 h postdose of the 2nd dosing on Days 1 and 28; at 2 min, 1 h and 4 h postdose the 3rd dosing on Days 1 and 28. Animals in control group were sampled at predose and 2 min postdose of the 1st dosing on Days 1 and 28. Approximately 0.36 mL of blood was collected from the jugular vein of surviving TK animals at each time point. Whole blood samples were anticoagulated with EDTA-K2 and centrifuged at 2°C–8°C and 1800 × g for 10 min. The harvested plasma was stored below −66°C before the analysis. LC-MS/MS methods (liquid chromatograph/mass spectrometer) were used to detect concentrations of LPM3480392 at each time point. TK parameters (AUC, Cmax, Tmax) were calculated by Phoenix WinNonlin (Pharsight) 8.2. The detection instruments include ultra-performance liquid chromatography (Waters, United States ACQUITY UPLC I -CLASS) and triple quadrupole tandem mass spectrometer (Waters, United States, Xevo TQ-S).

SMILES: Fc1ccc([C@]2(CCNCc3cccc(Cl)c3)CCO[C@]3(CCOC3)C2)nc1 [LPM3480392]
- concentration at 2 min (female, 1.2 mg/kg/day, 1.2 mg/kg/day iv, 1st dosing day, F, read-out: C2min (The 2nd dosing)): 0.169 ± 0.0262 µg/mL
- concentration at 2 min (female, 1.2 mg/kg/day, 1.2 mg/kg/day iv, 1st dosing day, F, read-out: C2min (The 3rd dosing)): 0.157 ± 0.0255 µg/mL
- concentration at 2 min (female, 1.2 mg/kg/day, 1.2 mg/kg/day iv, 28th dosing day, F, read-out: C2min (The 1st dosing)): 0.187 ± 0.02 µg/mL
- concentration at 2 min (female, 1.2 mg/kg/day, 1.2 mg/kg/day iv, 28th dosing day, F, read-out: C2min (The 2nd dosing)): 0.167 ± 0.0141 µg/mL
- concentration at 2 min (female, 1.2 mg/kg/day, 1.2 mg/kg/day iv, 28th dosing day, F, read-out: C2min (The 3rd dosing)): 0.166 ± 0.0161 µg/mL
- concentration at 2 min (female, 2.4 mg/kg/day, 2.4 mg/kg/day iv, 1st dosing day, F, read-out: C2min (The 1st dosing)): 0.331 ± 0.0251 µg/mL
- concentration at 2 min (female, 2.4 mg/kg/day, 2.4 mg/kg/day iv, 1st dosing day, F, read-out: C2min (The 2nd dosing)): 0.292 ± 0.0336 µg/mL
- concentration at 2 min (female, 2.4 mg/kg/day, 2.4 mg/kg/day iv, 1st dosing day, F, read-out: C2min (The 3rd dosing)): 0.234 ± 0.0521 µg/mL
- concentration at 2 min (female, 2.4 mg/kg/day, 2.4 mg/kg/day iv, 28th dosing day, F, read-out: C2min (The 1st dosing)): 0.356 ± 0.0819 µg/mL
- concentration at 2 min (female, 2.4 mg/kg/day, 2.4 mg/kg/day iv, 28th dosing day, F, read-out: C2min (The 2nd dosing)): 0.387 ± 0.0549 µg/mL
- concentration at 2 min (female, 2.4 mg/kg/day, 2.4 mg/kg/day iv, 28th dosing day, F, read-out: C2min (The 3rd dosing)): 0.323 ± 0.0207 µg/mL
- AUC(0-t) (female, 0.6 mg/kg/day, 0.6 mg/kg/day iv, 1st dosing day, F): 0.319 ± 0.056 µg·h/mL
- AUC(0-t) (female, 0.6 mg/kg/day, 0.6 mg/kg/day iv, 28th dosing day, F): 0.331 ± 0.0483 µg·h/mL
- AUC(0-t) (female, 1.2 mg/kg/day, 1.2 mg/kg/day iv, 1st dosing day, F): 0.719 ± 0.122 µg·h/mL
- AUC(0-t) (female, 1.2 mg/kg/day, 1.2 mg/kg/day iv, 28th dosing day, F): 0.735 ± 0.0634 µg·h/mL
- AUC(0-t) (female, 2.4 mg/kg/day, 2.4 mg/kg/day iv, 1st dosing day, F): 1.31 ± 0.0579 µg·h/mL
- AUC(0-t) (female, 2.4 mg/kg/day, 2.4 mg/kg/day iv, 28th dosing day, F): 1.58 ± 0.129 µg·h/mL
- concentration at 2 min (male, 0.6 mg/kg/day, 0.6 mg/kg/day iv, 1st dosing day, M, read-out: C2min (The 1st dosing)): 0.0981 ± 0.0213 µg/mL
- concentration at 2 min (male, 0.6 mg/kg/day, 0.6 mg/kg/day iv, 1st dosing day, M, read-out: C2min (The 2nd dosing)): 0.0705 ± 0.0147 µg/mL
- concentration at 2 min (male, 0.6 mg/kg/day, 0.6 mg/kg/day iv, 1st dosing day, M, read-out: C2min (The 3rd dosing)): 0.0647 ± 0.0108 µg/mL
- concentration at 2 min (male, 0.6 mg/kg/day, 0.6 mg/kg/day iv, 28th dosing day, M, read-out: C2min (The 1st dosing)): 0.0843 ± 0.0202 µg/mL
- concentration at 2 min (male, 0.6 mg/kg/day, 0.6 mg/kg/day iv, 28th dosing day, M, read-out: C2min (The 2nd dosing)): 0.0779 ± 0.0082 µg/mL
- concentration at 2 min (male, 0.6 mg/kg/day, 0.6 mg/kg/day iv, 28th dosing day, M, read-out: C2min (The 3rd dosing)): 0.0794 ± 0.00761 µg/mL
- concentration at 2 min (male, 1.2 mg/kg/day, 1.2 mg/kg/day iv, 1st dosing day, M, read-out: C2min (The 1st dosing)): 0.17 ± 0.0107 µg/mL
- concentration at 2 min (male, 1.2 mg/kg/day, 1.2 mg/kg/day iv, 1st dosing day, M, read-out: C2min (The 2nd dosing)): 0.142 ± 0.0289 µg/mL
- concentration at 2 min (male, 1.2 mg/kg/day, 1.2 mg/kg/day iv, 1st dosing day, M, read-out: C2min (The 3rd dosing)): 0.139 ± 0.0292 µg/mL
- concentration at 2 min (male, 1.2 mg/kg/day, 1.2 mg/kg/day iv, 28th dosing day, M, read-out: C2min (The 1st dosing)): 0.171 ± 0.0262 µg/mL
- concentration at 2 min (male, 1.2 mg/kg/day, 1.2 mg/kg/day iv, 28th dosing day, M, read-out: C2min (The 2nd dosing)): 0.113 ± 0.0091 µg/mL
- concentration at 2 min (male, 1.2 mg/kg/day, 1.2 mg/kg/day iv, 28th dosing day, M, read-out: C2min (The 3rd dosing)): 0.131 ± 0.0187 µg/mL
- concentration at 2 min (male, 2.4 mg/kg/day, 2.4 mg/kg/day iv, 1st dosing day, M, read-out: C2min (The 1st dosing)): 0.328 ± 0.0338 µg/mL
- concentration at 2 min (male, 2.4 mg/kg/day, 2.4 mg/kg/day iv, 1st dosing day, M, read-out: C2min (The 2nd dosing)): 0.289 ± 0.0105 µg/mL
- concentration at 2 min (male, 2.4 mg/kg/day, 2.4 mg/kg/day iv, 1st dosing day, M, read-out: C2min (The 3rd dosing)): 0.225 ± 0.0409 µg/mL
- concentration at 2 min (male, 2.4 mg/kg/day, 2.4 mg/kg/day iv, 28th dosing day, M, read-out: C2min (The 1st dosing)): 0.346 ± 0.046 µg/mL
- concentration at 2 min (male, 2.4 mg/kg/day, 2.4 mg/kg/day iv, 28th dosing day, M, read-out: C2min (The 2nd dosing)): 0.259 ± 0.0683 µg/mL
- concentration at 2 min (male, 2.4 mg/kg/day, 2.4 mg/kg/day iv, 28th dosing day, M, read-out: C2min (The 3rd dosing)): 0.317 ± 0.0479 µg/mL
- AUC(0-t) (male, 0.6 mg/kg/day, 0.6 mg/kg/day iv, 1st dosing day, M): 0.31 ± 0.0356 µg·h/mL
- AUC(0-t) (male, 0.6 mg/kg/day, 0.6 mg/kg/day iv, 28th dosing day, M): 0.366 ± 0.0147 µg·h/mL
- AUC(0-t) (male, 1.2 mg/kg/day, 1.2 mg/kg/day iv, 1st dosing day, M): 0.607 ± 0.0834 µg·h/mL
- AUC(0-t) (male, 1.2 mg/kg/day, 1.2 mg/kg/day iv, 28th dosing day, M): 0.625 ± 0.0289 µg·h/mL
- AUC(0-t) (male, 2.4 mg/kg/day, 2.4 mg/kg/day iv, 1st dosing day, M): 1.19 ± 0.0871 µg·h/mL
- AUC(0-t) (male, 2.4 mg/kg/day, 2.4 mg/kg/day iv, 28th dosing day, M): 1.4 ± 0.168 µg·h/mL
